Assay: Phase I study: toxicity graded with NCI common toxicity criteria in patients
Type: in vivo, human
Description: Fostriecin (CI-920) is a topoisomerase (topo) II catalytic activity inhibitor (Boritzki et al, 1988) (Figure 1). This novel class of topo II-targeting drugs is considered of potential value for treatment of patients with tumours resistant to classic topo II poisons, including anthracyclines and podophyllotoxins (Cummings and Smyth, 1993). The nuclear enzyme topo II is essential for the regulation of DNA conformation (reviewed in Osheroff et al, 1991). Central in its action is the formation of a complex with DNA. Stabilization of this complex by topo II poisons induces DNA damage and cell death (Froelich-Ammon and Osheroff, 1995). Decreased complex formation due to decreased topo II levels is considered to be an important mechanism of tumour-resistance to topo II poisons (Beck and Danks, 1991). The topo II catalytic inhibitor fostriecin is expected to have increased activity against tumour cells with low topo II levels and this was confirmed in in vitro studies (De Jong et al, 1991). […] Because of increased toxi- city of fostriecin in dogs compared to mice, a dose below one-third of the one-tenth mouse equivalent LD10, 2 mg m-2 day-1, was chosen as starting dose in humans (Clinical Brochure Fostriecin, 1991). […] We also performed an analysis of the human pharmacokinetics of fostriecin and ex vivo experiments to investigate if the plasma drug concentrations achieved were sufficient to inhibit a tenipo- side-resistant tumour cell line. The maximum tolerated dose (MTD) of fostriecin could not be established because drug supply was stopped prematurely. However, results of this study may provide a basis for continued clinical development of this agent. PATIENTS AND METHODS Patient selection, drug administration and evaluation Patient eligibility criteria were: histologically confirmed diagnosis of a solid tumour, no longer amenable to established forms of treatment; age 18-75 years; Eastern Cooperative Oncology Group (ECOG) performance status 2; life expectancy 12 weeks; no Phase I and pharmacokinetic study of the topoisomerase II catalytic inhibitor fostriecin RS de Jong1, NH Mulder1, DRA Uges2, DTh Sleijfer1, FJP Hoppener4, HJM Groen3, PHB Willemse1, WTA van der Graaf1 and EGE de Vries1 Departments of 1Medical Oncology, 2Pharmacy and Toxicology, and 3Pulmonary Diseases, University Hospital Groningen, The Netherlands; 4EORTC New Drug Development Office, Amsterdam, The Netherlands Summary We conducted a phase I and pharmacokinetic study of the topoisomerase II catalytic inhibitor fostriecin. Fostriecin was administered intravenously over 60 min on days 1-5 at 4-week intervals. Dose was escalated from 2 mg m-2 day-1 to 20 mg m-2 day-1 in 20 patients. Drug pharmacokinetics was analysed with high performance liquid chromatography with UV-detection. Plasma collected during drug administration was tested in vitro for growth inhibition of a teniposide-resistant small-cell lung cancer (SCLC) cell line. The predominant toxicities were elevated liver transaminases (maximum common toxicity criteria (CTC) grade 4) and serum creatinine (maximum CTC grade 2). […] Duration of elevated alanine-amino transferase (ALT) was dose-limiting in one patient at 20 mg m-2. Other frequent toxicities were grade 1-2 nausea/vomiting, fever and mild fatigue. […] A metabolite, most probably dephosphorylated fostriecin, was detected in plasma and urine. […] However, further escalation seems possible and is warranted to achieve potentially effective drug levels. Fostriecin has a short plasma half-life and longer duration of infusion should be considered. […]

[1] = 4 mg m-2, 5 patients/11 courses
[2] = 6.6 mg m-2, 3 patients/4 courses
[3] = 10 mg m-2, 3 patients/7 courses

Structure (SMILES): C[C@@](O)(/C=C/[C@H]1CC=CC(=O)O1)[C@@H](C[C@@H](O)\C=C/C=C\C=C\CO)OP(=O)(O)O [fostriecin]
- CTC-grade 1 ALP: courses causing toxicity, all full-dose courses (2 mg m-2, 4 patients/8 courses): 2
- CTC-grade 1 ALP: patients developing toxicity in first course (2 mg m-2, 4 patients/8 courses): 1
- CTC-grade 1 ALT: courses causing toxicity, all full-dose courses (2 mg m-2, 4 patients/8 courses): 6
- CTC-grade 1 ALT: patients developing toxicity in first course (2 mg m-2, 4 patients/8 courses): 2
- CTC-grade 1 AST: courses causing toxicity, all full-dose courses (2 mg m-2, 4 patients/8 courses): 2
- CTC-grade 1 AST: patients developing toxicity in first course (2 mg m-2, 4 patients/8 courses): 2
- CTC-grade 1 GGT: courses causing toxicity, all full-dose courses (2 mg m-2, 4 patients/8 courses): 2
- CTC-grade 1 GGT: patients developing toxicity in first course (2 mg m-2, 4 patients/8 courses): 0
- CTC-grade 1 creatinine: courses causing toxicity, all full-dose courses (2 mg m-2, 4 patients/8 courses): 4
- CTC-grade 1 creatinine: patients developing toxicity in first course (2 mg m-2, 4 patients/8 courses): 2
- CTC-grade 2 ALT: courses causing toxicity, all full-dose courses (2 mg m-2, 4 patients/8 courses): 1
- CTC-grade 2 ALT: patients developing toxicity in first course (2 mg m-2, 4 patients/8 courses): 1
- CTC-grade 2 GGT: courses causing toxicity, all full-dose courses (2 mg m-2, 4 patients/8 courses): 2
- CTC-grade 2 GGT: patients developing toxicity in first course (2 mg m-2, 4 patients/8 courses): 1
- CTC-grade 1 ALP: courses causing toxicity, all full-dose courses [1]: 3
- CTC-grade 1 ALP: patients developing toxicity in first course [1]: 3
- CTC-grade 1 ALT: courses causing toxicity, all full-dose courses [1]: 8
- CTC-grade 1 ALT: patients developing toxicity in first course [1]: 4
- CTC-grade 1 AST: courses causing toxicity, all full-dose courses [1]: 7
- CTC-grade 1 AST: patients developing toxicity in first course [1]: 3
- CTC-grade 1 GGT: courses causing toxicity, all full-dose courses [1]: 1
- CTC-grade 1 GGT: patients developing toxicity in first course [1]: 1
- CTC-grade 1 creatinine: courses causing toxicity, all full-dose courses [1]: 7
- CTC-grade 1 creatinine: patients developing toxicity in first course [1]: 3
- CTC-grade 2 ALP: courses causing toxicity, all full-dose courses [1]: 1
- CTC-grade 2 ALP: patients developing toxicity in first course [1]: 0
- CTC-grade 2 ALT: courses causing toxicity, all full-dose courses [1]: 1
- CTC-grade 2 ALT: patients developing toxicity in first course [1]: 0
- CTC-grade 2 AST: courses causing toxicity, all full-dose courses [1]: 1
- CTC-grade 2 AST: patients developing toxicity in first course [1]: 1
- CTC-grade 2 GGT: courses causing toxicity, all full-dose courses [1]: 0
- CTC-grade 2 GGT: patients developing toxicity in first course [1]: 0
- CTC-grade 3 ALT: courses causing toxicity, all full-dose courses [1]: 2
- CTC-grade 3 ALT: patients developing toxicity in first course [1]: 1
- CTC-grade 3 AST: courses causing toxicity, all full-dose courses [1]: 1
- CTC-grade 3 AST: patients developing toxicity in first course [1]: 0
- CTC-grade 3 GGT: courses causing toxicity, all full-dose courses [1]: 4
- CTC-grade 3 GGT: patients developing toxicity in first course [1]: 1
- CTC-grade 1 ALP: courses causing toxicity, all full-dose courses [2]: 3
- CTC-grade 1 ALP: patients developing toxicity in first course [2]: 0
- CTC-grade 1 ALT: courses causing toxicity, all full-dose courses [2]: 2
- CTC-grade 1 ALT: patients developing toxicity in first course [2]: 2
- CTC-grade 1 AST: courses causing toxicity, all full-dose courses [2]: 0
- CTC-grade 1 AST: patients developing toxicity in first course [2]: 0
- CTC-grade 1 GGT: courses causing toxicity, all full-dose courses [2]: 0
- CTC-grade 1 GGT: patients developing toxicity in first course [2]: 0
- CTC-grade 1 creatinine: courses causing toxicity, all full-dose courses [2]: 1
- CTC-grade 1 creatinine: patients developing toxicity in first course [2]: 1
- CTC-grade 2 ALP: courses causing toxicity, all full-dose courses [2]: 1
- CTC-grade 2 ALP: patients developing toxicity in first course [2]: 0
- CTC-grade 2 ALT: courses causing toxicity, all full-dose courses [2]: 1
- CTC-grade 2 ALT: patients developing toxicity in first course [2]: 1
- CTC-grade 2 AST: courses causing toxicity, all full-dose courses [2]: 1
- CTC-grade 2 AST: patients developing toxicity in first course [2]: 1
- CTC-grade 2 GGT: courses causing toxicity, all full-dose courses [2]: 0
- CTC-grade 2 GGT: patients developing toxicity in first course [2]: 0
- CTC-grade 2 bilirubin: courses causing toxicity, all full-dose courses [2]: 1
- CTC-grade 2 bilirubin: patients developing toxicity in first course [2]: 1
- CTC-grade 3 ALT: courses causing toxicity, all full-dose courses [2]: 1
- CTC-grade 3 ALT: patients developing toxicity in first course [2]: 0
- CTC-grade 3 AST: courses causing toxicity, all full-dose courses [2]: 2
- CTC-grade 3 AST: patients developing toxicity in first course [2]: 1
- CTC-grade 3 GGT: courses causing toxicity, all full-dose courses [2]: 1
- CTC-grade 3 GGT: patients developing toxicity in first course [2]: 1
- CTC-grade 1 ALP: courses causing toxicity, all full-dose courses [3]: 1
- CTC-grade 1 ALP: patients developing toxicity in first course [3]: 1
- CTC-grade 1 ALT: courses causing toxicity, all full-dose courses [3]: 0
- CTC-grade 1 ALT: patients developing toxicity in first course [3]: 0
- CTC-grade 1 AST: courses causing toxicity, all full-dose courses [3]: 3
- CTC-grade 1 AST: patients developing toxicity in first course [3]: 0
- CTC-grade 1 GGT: courses causing toxicity, all full-dose courses [3]: 6
- CTC-grade 1 GGT: patients developing toxicity in first course [3]: 2
- CTC-grade 1 creatinine: courses causing toxicity, all full-dose courses [3]: 3
- CTC-grade 1 creatinine: patients developing toxicity in first course [3]: 2
- CTC-grade 2 ALT: courses causing toxicity, all full-dose courses [3]: 3
- CTC-grade 2 ALT: patients developing toxicity in first course [3]: 0
- CTC-grade 2 AST: courses causing toxicity, all full-dose courses [3]: 1
- CTC-grade 2 AST: patients developing toxicity in first course [3]: 1
- CTC-grade 2 GGT: courses causing toxicity, all full-dose courses [3]: 0
- CTC-grade 2 GGT: patients developing toxicity in first course [3]: 0
- CTC-grade 2 creatinine: courses causing toxicity, all full-dose courses [3]: 4
- CTC-grade 2 creatinine: patients developing toxicity in first course [3]: 1
- CTC-grade 3 ALT: courses causing toxicity, all full-dose courses [3]: 2
- CTC-grade 3 ALT: patients developing toxicity in first course [3]: 2
- CTC-grade 3 GGT: courses causing toxicity, all full-dose courses [3]: 1
- CTC-grade 3 GGT: patients developing toxicity in first course [3]: 1

— PMC2362650, “Phase I and pharmacokinetic study of the topoisomerase II catalytic inhibitor fostriecin” (British Journal of Cancer, 1999)
